What follows are compounds tested against biotinylated Avi-POLθ[2-894] (Homo sapiens (Human), UniProt O75417) (assay: POLθ ATPase assay (ADP-Glo)). Conditions: POLθ ATPase, ADP-Glo; n=2; read-out: Biochemical ATPase ADPGlo IC50.
Method: In some embodiments, the ATPase assay a compound of the present disclosure is combined with biotinylated Avi-POLθ[2-894], a 50 nucleotide poly-thymine repeat single-stranded DNA, and ATP in buffer. In some embodiments, the mixture is incubated and ADP-Glo Reagent added, followed by a subsequent incubation. In some embodiments, a Kinase Detection Reagent may be added, followed by a third incubation. In some embodiments, the activity is measured via luminescence signal (e.g., measured with the EnVision multimode plate reader). POLθ-mediated ATP hydrolysis was measured using the ADP-Glo Kinase Assay (Promega Corporation, Madison, WI). Reactions were performed in white 384-well small-volume microplates (Greiner Bio-One, Frickenhausen, Germany) using a total volume of 15 μL. The ATPase reaction consisted of 1 nM biotinylated Avi-POLθ[2-894], 5 nM of a 50 nucleotide poly-thymine repeat single-stranded DNA (PolyT(50) ssDNA), and 100 μM ATP in 5 μL of assay buffer (50 mM Tris, pH 7.5, 80 mM KCl, 10 MgCl2, 1 mM DTT, 5% glycerol, 0.01% BSA, 0.01% Tween-20). Inhibition of POLΘATPase activity was determined by preparing 11-point serial dilutions of the test compounds in 100% DMSO, then transferring 30 nL of the compounds into the ATPase reaction using an Echo acoustic liquid handler (Beckman Coulter, Brea, CA). DMSO-treated wells containing either all of the reaction components (1 nM biotinylated Avi-POLθ[2-894], 5 nM PolyT(50) ssDNA, 100 μM ATP) or with assay buffer substituted for the biotinylated Avi-POLθ[2-894](0 nM biotinylated Avi-POLθ[2-894], 5 nM PolyT(50) ssDNA, 100 μM ATP) were used to define the maximum and minimum response in the assay. Following a one-hour incubation at ambient temperature, 5 μL of ADP-Glo Reagent was added to the ATPase reaction, and this mixture was allowed to incubate at ambient temperature for an additional hour. Lastly, 5 μL of Kinase Detection Reagent was added, followed by a third one-hour incubation at ambient temperature. […] Luminescence signal was measured using the EnVision multimode plate reader (Perkin Elmer. Waltham. MA). […] Non-linear regression analysis using the four-parameter logistic equation was conducted on the percent activity values of the compound dose-responses, yielding the AC50 value for each compound. Genedata Screener (Genedata. Basel, Switzerland) was used for the data analysis.

Sequence of biotinylated Avi-POLθ[2-894] (O75417 2-894): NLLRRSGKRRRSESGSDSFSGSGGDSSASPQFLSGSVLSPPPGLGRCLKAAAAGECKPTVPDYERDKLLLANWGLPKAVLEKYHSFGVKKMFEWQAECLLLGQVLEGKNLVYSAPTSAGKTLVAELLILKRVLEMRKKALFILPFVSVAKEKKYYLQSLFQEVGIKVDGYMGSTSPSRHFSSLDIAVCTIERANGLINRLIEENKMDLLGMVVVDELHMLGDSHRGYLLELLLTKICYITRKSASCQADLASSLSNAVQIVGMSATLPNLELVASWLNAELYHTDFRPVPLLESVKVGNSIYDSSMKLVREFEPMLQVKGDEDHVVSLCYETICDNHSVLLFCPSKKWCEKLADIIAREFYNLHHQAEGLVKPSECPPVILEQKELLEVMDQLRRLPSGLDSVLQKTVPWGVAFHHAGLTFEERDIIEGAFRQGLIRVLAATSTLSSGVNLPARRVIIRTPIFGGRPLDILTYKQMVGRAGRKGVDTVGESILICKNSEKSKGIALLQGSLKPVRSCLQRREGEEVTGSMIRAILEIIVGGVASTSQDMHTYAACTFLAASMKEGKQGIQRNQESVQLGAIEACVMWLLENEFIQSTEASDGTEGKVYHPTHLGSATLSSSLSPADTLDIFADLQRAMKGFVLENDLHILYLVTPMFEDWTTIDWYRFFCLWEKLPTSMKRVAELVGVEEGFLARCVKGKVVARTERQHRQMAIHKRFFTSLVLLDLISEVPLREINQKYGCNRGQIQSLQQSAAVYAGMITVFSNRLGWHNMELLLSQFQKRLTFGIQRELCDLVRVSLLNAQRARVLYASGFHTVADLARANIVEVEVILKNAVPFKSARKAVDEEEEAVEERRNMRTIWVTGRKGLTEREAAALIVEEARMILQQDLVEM

| IC50 [µM] | SMILES |
| --- | --- |
| 0.015 to 0.05 | COc1cnc(Cl)cc1-c1cc(C)ncc1C(=O)Nc1nc2c(s1)CN(C(=O)c1ccc(C(F)(F)F)nc1OC)C2C (single isomer, unassigned) [Example 1037, (R or S)-2′-chloro-5′-methoxy-N-(5-(2-methoxy-6-(trifluoromethyl)nicotinoyl)-4-methyl-5,6-dihydro-4H-pyrrolo[3,4-d]thiazol-2-y])-6-methyl-[4,4′-bipyridine]-3-carboxamide] |
| 0.15 to 0.9 | COc1cnc(Cl)cc1-c1cc(C)ncc1C(=O)Nc1nc2c(s1)C(C)N(C(=O)c1ccc(C(F)(F)F)nc1OC)C2 (single isomer, unassigned) [Example 1047, (S or R)-2′-chloro-5′-methoxy-N-(5-(2-methoxy-6-(trifluoromethyl)nicotinoyl)-6-methyl-5,6-dihydro-4H-pyrrolo[3,4-d]thiazol-2-yl)-6-methyl-[4,4′-bipyridine]-3-carboxamide] |

Same assay, conditions: n=2; read-out: Biochemical ATPase ADPGlo IC50

| IC50 [µM] | SMILES |
| --- | --- |
| 0.15 to 0.9 | COc1cnc(Cl)cc1-c1cc(C)ncc1C(=O)Nc1nc2c(s1)CC(N1CCC(O)CC1)CC2 (racemic) [Example 109, (Racemic)-2′-chloro-N-(6-(4-hydroxypiperidin-1-yl)-4,5,6,7-tetrahydrobenzo[d]thiazol-2-yl)-5′-methoxy-6-methyl-[4,4′-bipyridine]-3-carboxamide] |
| ≥ 0.9 | COc1cnc(Cl)cc1-c1cc(C)ncc1C(=O)Nc1nc2c(s1)CC(N1CCCCC1)CC2 (racemic) [Example 110] |
| 0.15 to 0.9 | COc1cnc(Cl)cc1-c1cc(C)ncc1C(=O)Nc1nc2c(s1)CC(NC1CCC1)CC2 (racemic) [Example 134] |
| 0.001 to 0.015 | COc1cnc(Cl)cc1-c1cc(C)ncc1C(=O)Nc1nc2c(s1)CN(C(=O)c1ccnn1C(F)F)C2 (racemic) [Example 137] |
| 0.15 to 0.9 | COc1cnc(Cl)cc1-c1cc(C)ncc1C(=O)Nc1nc2c(s1)C[C@H](NC(=O)[C@H]1C[C@@H](O)C1)CC2 (racemic) [Example 144] |
| 0.05 to 0.15 | COc1ccc(C#N)cc1-c1cc(C)ncc1C(=O)Nc1nc2c(s1)CN(C1CC1)C2 (racemic) [Example 165] |
| 0.15 to 0.9 | COc1ccc(C#N)cc1-c1cc(C)ncc1C(=O)Nc1nc2c(s1)CN(C(=O)c1ccncc1)CC2 (racemic) [Example 213] |
| 0.015 to 0.05 | COc1ccc(C#N)cc1-c1cc(C)ncc1C(=O)Nc1nc2c(s1)CN(S(=O)(=O)C1CCCOC1)C2 (racemic) [Example 233] |
| 0.15 to 0.9 | COc1ccc(C#N)cc1-c1cc(C)ncc1C(=O)Nc1nc2c(s1)CN(C(=O)C1COC1)CC2 (single isomer, unassigned) |
| 0.15 to 0.9 | COc1ccc(C#N)cc1-c1cc(C)ncc1C(=O)Nc1nc2c(s1)CN(C(=O)C1CCCC1)CC2 (single isomer, unassigned) |
| 0.015 to 0.05 | COc1cnc(Cl)cc1-c1cc(C)ncc1C(=O)Nc1nc2c(s1)C[C@H](C(=O)NC1CCC1)CC2 (single isomer, unassigned) [Example 27, (R or S)-2-(2′-chloro-5′-methoxy-6-methyl-[4,4′-bipyridine]-3-carboxamido)-N-cyclobutyl-4,5,6,7-tetrahydrobenzo[d]thiazole-6-carboxamide] |
| 0.15 to 0.9 | COc1cnc(Cl)cc1-c1cc(C)ncc1C(=O)Nc1nc2c(s1)C[C@@H](C(=O)NC1CCC1)CC2 (single isomer, unassigned) [Example 29, (S or R)-2-(2′-chloro-5′-methoxy-6-methyl-[4,4′-bipyridine]-3-carboxamido)-N-cyclobutyl-4,5,6,7-tetrahydrobenzo[d]thiazole-6-carboxamide] |
| 0.15 to 0.9 | COc1cnc(Cl)cc1-c1cc(C)ncc1C(=O)Nc1nc2c(s1)CC(C(=O)NC1CC1)CC2 (single isomer, unassigned) [Example 154] |
| 0.15 to 0.9 | COc1ccc(C#N)cc1-c1cc(C)ncc1C(=O)Nc1nc2c(s1)CN(C(=O)C1CC1(F)F)CC2 (single isomer, unassigned) [Example 210] |
| ≥ 0.9 | COc1ccc(C#N)cc1-c1cc(C)ncc1C(=O)Nc1nc2c(s1)CN(C(=O)C1CCCCO1)CC2 (single isomer, unassigned) [Example 215] |
| 0.015 to 0.05 | COc1cn2cncc2cc1-c1cc(C)ncc1C(=O)Nc1nc2c(s1)CN(C(=O)[C@H]1C[C@H](OC(F)(F)F)C1)C2 [Example 22, 4-(6-methoxyimidazo[1,5-a]pyridin-7-yl)-6-methyl-N-(5-((1r,3r)-3-(trifluoromethoxy)cyclobutane-1-carbonyl)-5,6-dihydro-4H-pyrrolo[3,4-d]thiazol-2-yl)nicotinamide] |
| 0.015 to 0.05 | COc1cnc(Cl)cc1-c1cc(C)ncc1C(=O)Nc1nc2c(s1)CN(C(=O)c1nccn1C)C2 [Example 23, 2′-chloro-5′-methoxy-6-methyl-N-(5-(1-methyl-1H-imidazole-2-carbonyl)-5,6-dihydro-4H-pyrrolo[3,4-d]thiazol-2-yl)-[4,4′-bipyridine]-3-carboxamide] |
| 0.015 to 0.05 | COc1cnc(Cl)cc1-c1cc(C)ncc1C(=O)Nc1nc2c(s1)CN(C(=O)C1CN(CC(F)F)C1)C2 [Example 24, 2′-chloro-N-(5-(1-(2,2-difluoroethyl)azetidine-3-carbonyl)-5,6-dihydro-4H-pyrrolo[3,4-d]thiazol-2-yl)-5′-methoxy-6-methyl-[4,4′-bipyridine]-3-carboxamide] |
| 0.015 to 0.05 | COc1cnc(Cl)cc1-c1cc(C)ncc1C(=O)Nc1nc2c(s1)CN(C(=O)c1cncn1C)C2 [Example 30, 2′-chloro-5′-methoxy-6-methyl-N-(5-(1-methyl-1H-imidazole-5-carbonyl)-5,6-dihydro-4H-pyrrolo[3,4-d]thiazol-2-yl)-[4,4′-bipyridine]-3-carboxamide] |
| 0.001 to 0.015 | COc1cnc(Cl)cc1-c1cc(C)ncc1C(=O)Nc1nc2c(s1)CN(C(=O)c1cccnn1)C2 [Example 33, 2′-chloro-5′-methoxy-6-methyl-N-(5-(pyridazine-3-carbonyl)-5,6-dihydro-4H-pyrrolo[3,4-d]thiazol-2-yl)-[4,4′-bipyridine]-3-carboxamide] |
| 0.001 to 0.015 | COc1cnc(Cl)cc1-c1cc(C)ncc1C(=O)Nc1nc2c(s1)CN(C(=O)c1ncc(C)cn1)C2 [Example 34, 2′-chloro-5′-methoxy-6-methyl-N-(5-(5-methylpyrimidine-2-carbonyl)-5,6-dihydro-4H-pyrrolo[3,4-d]thiazol-2-yl)-[4,4′-bipyridine]-3-carboxamide] |
| 0.001 to 0.015 | COc1cnc(Cl)cc1-c1cc(C)ncc1C(=O)Nc1nc2c(s1)CN(C(=O)c1cnccn1)C2 [Example 41, 2′-chloro-5′-methoxy-6-methyl-N-(5-(pyrazine-2-carbonyl)-5,6-dihydro-4H-pyrrolo[3,4-d]thiazol-2-yl)-[4,4′-bipyridine]-3-carboxamide] |
| 0.15 to 0.9 | COc1cnc(Cl)cc1-c1cc(C)ncc1C(=O)Nc1nc2c(s1)CN(C(=O)C1CC(N(C)C)C1)C2 (centres unmarked) [Example 43, 2′-chloro-N-(5-(3-(dimethylamino)cyclobutane-1-carbonyl)-5,6-dihydro-4H-pyrrolo[3,4-d]thiazol-2-yl)-5′-methoxy-6-methyl-[4,4′-bipyridine]-3-carboxamide] |
| 0.001 to 0.015 | COc1cnc(Cl)cc1-c1cc(C)ncc1C(=O)Nc1nc2c(s1)CN(C(=O)c1ccnn1CC(F)(F)F)C2 [Example 46, 2′-chloro-5′-methoxy-6-methyl-N-(5-(1-(2,2,2-trifluoroethyl)-1H-pyrazole-5-carbonyl)-5,6-dihydro-4H-pyrrolo[3,4-d]thiazol-2-yl)-[4,4′-bipyridine]-3-carboxamide] |
| 0.001 to 0.015 | COc1cnc(Cl)cc1-c1cc(C)ncc1C(=O)Nc1nc2c(s1)CN(C(=O)c1ncn(C)n1)C2 [Example 50, 2′-chloro-5′-methoxy-6-methyl-N-(5-(1-methyl-1H-1,2,4-triazole-3-carbonyl)-5,6-dihydro-4H-pyrrolo[3,4-d]thiazol-2-yl)-[4,4′-bipyridine]-3-carboxamide] |
| 0.001 to 0.015 | COc1cnc(Cl)cc1-c1cc(C)ncc1C(=O)Nc1nc2c(s1)CN(C(=O)c1ccn(CC(F)F)n1)C2 [Example 51, 2′-chloro-N-(5-(1-(2,2-difluoroethyl)-1H-pyrazole-3-carbonyl)-5,6-dihydro-4H-pyrrolo[3,4-d]thiazol-2-yl)-5′-methoxy-6-methyl-[4,4′-bipyridine]-3-carboxamide] |
| 0.001 to 0.015 | COc1cnc(Cl)cc1-c1cc(C)ncc1C(=O)Nc1nc2c(s1)CN(C(=O)c1nn(C(F)F)cc1Cl)C2 [Example 55, 2′-chloro-N-(5-(4-chloro-1-(difluoromethyl)-1H-pyrazole-3-carbonyl)-5,6-dihydro-4H-pyrrolo[3,4-d]thiazol-2-yl)-5′-methoxy-6-methyl-[4,4′-bipyridine]-3-carboxamide] |
